Results as given in article PMC6332004, “Transport of Twelve Coumarins from Angelicae Pubescentis Radix across a MDCK-pHaMDR Cell Monolayer—An in Vitro Model for Blood-Brain Barrier Permeability” (Molecules, 2015).
Read-outs that look alike come from different tables or passages of the source.

Assays:
in vitro = details: dog, MDCK-MDR1, pH 7.4
Method: (§1) 10 mM stock solutions of test compounds were prepared in DMSO and diluted with HBSS to the desired concentrations before transport experiments. HBSS (pH 7.4) was used as a transport medium. After washing the MDCK-pHaMDR cell monolayer twice with prewarmed HBSS medium, HBSS medium was preserved to prepare samples of the calibration curves. Then the experiments were carried out by replacing the transport medium in the AP side (0.5 mL, for absorption transport) or BL side (1.5 mL, for efflux transport) with test compounds (50 µM). The plates were shaked at 55 rpm for 90 min at 37 °C in a water bath. Samples were collected from both sides of the cell monolayer, then immediately frozen, lyophilized and preserved below −20 °C. To measure the intracellular accumulation amounts of different coumarins, the cell monolayers were extracted after transport assays with 200 µL 70% MeOH (v/v) for 20 min, then centrifuged and preserved below −20 °C.
(§2) An Agilent 1100 series HPLC system (Agilent Technologies, Palo Alto, CA, USA) was used with an analytical Diamonsil® C18 column (250 mm × 4.6 mm, 5 µm, Dikma, Beijing, China) equipped with a C18 guard column (8 mm × 4 mm, 5 µm, Dikma). […] The flow rate was 1.0 mL/min. Elution peaks were monitored and the peak areas were used to calculate the compound concentrations.
(§3) Papp in AP-BL or BL-AP direction of each coumarin was calculated from the following equation: (2) Papp=dQ/dt·A·C0 [cm/s] where Q is the accumulation quantity of the compound in the receiver side (μmol), dQ/dt is the linear appearance rate of the compound in the receiver side (μmol/s), C0 is the initial concentration in the donor side (μM), and A is the surface area of the membrane insert (cm^2). Data were expressed as the mean ± SD.

[1] = Cell accumulation and total recovery of coumarins in the bidirectional transport experiment; details: dog
Method: as §1
(§4) To determine the corresponding coumarins, the lyophilized permeation samples were dissolved in a suitable volume of MeOH, thoroughly vortex-mixed for 1 min and then centrifuged at 16,000× g for 20 min. An aliquot of 20 µL supernatant solution was used for HPLC assay. To measure the intracellular accumulation amount of different coumarins, the aliquots of cell extractions were determined too.
(§5) CA (Cell accumulation): the percent of the coumarins that accumulated in the cell monolayer after transport
(§6) experiment relative to the initial amount. TR (Total recovery): the percent of the total amount of the coumarins
(§7) recovered from both sides of the inserts and intracellular accumulation in MDCK-pHaMDR cell monolayer
(§8) relative to the initial amount. N.D.: not detected. The concentration of all coumarins was 50 µM.
(§9) incubation time was up to 90 min. Data are means ± S.D. (n = 6).

[2] = test system: MDCK-pHaMDR cell monolayer; details: dog, 90 min, 50 µM, pH 7.4
Method: as §1, §4, §5, §6, §7, §8, §9

[3] = test system: MDCK-pHaMDR cell monolayer; assay: Cell accumulation and total recovery of coumarins in the bidirectional transport experiment; details: 50 µM, 90 min, percent of initial amount, n = 6
Method: as §1, §4, §5, §6, §7, §8, §9

[4] = test system: MDCK-pHaMDR cell monolayer; assay: Bidirectional transport across MDCK-pHaMDR cell monolayer (in vitro BBB model); details: AP to BL; coumarins 50 µM, caffeine 10 µM, atenolol 200 µM; 90 min; mean ± S.D., n = 6
Method: as §1, §2, §3

P-gp [5] = assay: Rh123 intracellular accumulation in MDCK-pHaMDR cells with or without verapamil; format: cell-based; details: Rh123 10 µM
Method: The fluorescence at 485 nm (excitation wavelength) and 538 nm (emission wavelength) was determined on a Cary Eclipse Fluorescence spectrophotometer (Varian Inc., Palo Alto, CA, USA). To investigate intracellular accumulations of Rh123 as a probe substrate for P-gp, MDCK-pHaMDR cells were seeded on the 6 Wells plates at a density of about 1.0 × 10^5 cells/mL and grew for 48 h. Before the uptake experiments, cells were washed with PBS two times and pre-incubated with serum-free DMEM or 100 µM verapamil for 20 min. Rh123 with the final concentration of 10 µM was added, and cells were incubated with or without the presence of verapamil for 60 min at 37 °C. Then cells were washed with ice-cold PBS three times, and lysed with 0.1% (v/v) Triton X-100 for 15 min at 37 °C [33]. The fluorescence of Rh123 in cell lysates was determined as described above.

P-gp [6] = assay: in vitro; details: dog, not told
Method: The P-gp expression level in the MDCK-pHaMDR cell monolayer was examined by Rh123 transport and intracellular accumulation experiments. Rh123 (10 µM) bidirectional transports with or without the presence of verapamil (100 µM) were undertaken as described above, and the lyophilized permeation samples were dissolved in a proper volume of MeOH. The fluorescence at 485 nm (excitation wavelength) and 538 nm (emission wavelength) was determined on a Cary Eclipse Fluorescence spectrophotometer (Varian Inc., Palo Alto, CA, USA).

[7] = MDCK-pHaMDR cell monolayer, pH 7.4, TR (Total recovery) AP→BL, AP→BL, 50 µM, 90 min, percent of initial amount, n = 6
[8] = MDCK-pHaMDR cell monolayer, pH 7.4, TR (Total recovery) BL→AP, BL→AP, 50 µM, 90 min, percent of initial amount, n = 6

SMILES	Papp A→B at 90 min (in vitro) [×10⁻⁶ cm/s]	Papp B→A at 90 min, 50 µM (in vitro) [×10⁻⁶ cm/s]	recovery at 90 min, 50 µM [1, 7] [%]	recovery at 90 min, 50 µM [1, 8] [%]	efflux ratio at 90 min, 50 µM (in vitro)	CA (Cell accumulation) AP→BL [3] [%]	CA (Cell accumulation) BL→AP [3] [%]	further results
COc1c2ccoc2cc2oc(=O)ccc12 [Compound 9, bergapten]	43.6 ± 2.13	37.4 ± 5.81	99.15 ± 0.54	107 ± 1.19	0.86	–	–	–
COc1c2occc2cc2ccc(=O)oc12 [Compound 8, xanthotoxin]	–	–	–	–	–	–	–	recovery at 90 min, 50 µM ([1]; pH 7.4, TR (Total recovery) AP→BL, AP→BL, 50 µM, 90 min, percent of initial amount, n = 6): 95.2 ± 4.79%; recovery at 90 min, 50 µM ([1]; pH 7.4, TR (Total recovery) BL→AP, BL→AP, 50 µM, 90 min, percent of initial amount, n = 6): 88.7 ± 3.13%
Cn1c(=O)c2c(ncn2C)n(C)c1=O [caffeine, reference compound]	43.6	–	–	–	–	–	–	Papp AP-BL [4]: 43.58 ± 4.86 ×10^−6 cm/s
O=c1ccc2cc3ccoc3cc2o1 [Compound 7, psoralen]	27.3 ± 2.35	26.8 ± 2.75	89.9 ± 6.49	94.7 ± 3.85	0.98	4.63 ± 0.13	1.79 ± 0.03	–
COC(=O)c1ccccc1-c1c2ccc(=N)cc-2oc2cc(N)ccc12 [Rh123, Rhodamine 123]	–	–	–	–	–	–	–	intracellular accumulation with verapamil relative to verapamil-absent group (P-gp [5]; 100 µM verapamil): 4.45 fold; Intracellular Accumulation Fluorescence Intensity (P-gp [5]; 60 min, without verapamil, n = 4): 34.51 ± 1.18; Papp A→B at 90 min, 10 µM (P-gp [6]; pH 7.4): 1.18 ± 0.056 ×10⁻⁶ cm/s; Papp B→A at 90 min, 10 µM (P-gp [6]; pH 7.4): 5.27 ± 0.209 ×10⁻⁶ cm/s; efflux ratio at 90 min, 10 µM (P-gp [6]; pH 7.4): 4.47 ± 0.24; efflux ratio at 90 min, 10 µM (P-gp [6]; pH 7.4, with verapamil 100 µM): 1.58
O=c1ccc2ccc(O)cc2o1 [Compound 1, umbelliferone]	35.9 ± 2.28	32.8 ± 1.25	99.3 ± 1.59	96.7 ± 3.22	–	–	–	–

Further lines, with some results ahead:

Papp A→B at 90 min (in vitro) [×10⁻⁶ cm/s]	Papp B→A at 90 min, 50 µM (in vitro) [×10⁻⁶ cm/s]	recovery at 90 min, 50 µM [1, 7] [%]	recovery at 90 min, 50 µM [1, 8] [%]	efflux ratio at 90 min, 50 µM (in vitro)	CA (Cell accumulation) AP→BL [3] [%]	CA (Cell accumulation) BL→AP [3] [%]	SMILES	further results
23.8 ± 1.44	20.4 ± 3.04	105 ± 5.15	95.6 ± 1.75	–	–	–	COc1ccc2ccc(=O)oc2c1CC=C(C)C [Compound 2, osthol]	CA (Cell accumulation) AP→BL [2]: 6.96 ± 1.50%; CA (Cell accumulation) BL→AP [2]: 3.51 ± 0.68%
37.1 ± 1.97	27.4 ± 3.51	87.5 ± 3.3	92.2 ± 3.16	0.96	–	–	COc1cc2ccc(=O)oc2cc1O [Compound 3, scopoletin]	–
10.4 ± 0.95	7.12 ± 0.12	67.6 ± 5	64.1 ± 3.63	–	21.49 ± 4.56	9.44 ± 1.01	C/C=C(/C)C(=O)OC(C)(C)[C@@H]1Cc2c(ccc3ccc(=O)oc23)O1 [Compound 11, columbianadin]	recovery at 90 min, 50 µM ([1]; MDCK-pHaMDR cell monolayer, pH 7.4, recovery (both sides of the insert and intracellular), both directions): 64 to 68%
7.29 ± 0.17	3.73 ± 0.33	90.2 ± 3.08	86.6 ± 2.89	–	5.38 ± 1.14	1.65 ± 0.36	CC(C)=CCOc1c2ccoc2cc2oc(=O)ccc12 [Compound 10, isoimperatorin]	–
